Earlier results, collected in US11878022B2 (Novitium Pharma LLC, priority 2020, dated 2024).

Tests used:
[1] = in vivo
[2] = in vivo; remark: listed apart in the source

Binding to serum proteins [2]: 40-68%
absorbed dose excreted in urine as unchanged drug ([2]; po): greater than 95%
Compound: NS(=O)(=O)c1cc2c(cc1Cl)NCNS2(=O)=O [Hydrochlorothiazide, 6-Chloro-3,4-dihydro-2H-1,2,4-benzothiadiazine-7-sulfonamide-1,1-dioxide]
Onset of action after dosing [1]: ≤ 2 h
persistence of activity [1]: up to 24 hours
time of peak effect [1]: about 4 hours
